Laboratory results reported in US20200386742A1, “CELL SYSTEMS USING SPHEROIDS AND METHODS OF MAKING AND USING THE SAME” (priority 2017, published 2020).

Test system: embryonic dorsal root ganglion (DRG) explants
Format: cell-based

NC1=N[C@H](O)[C@H]2[C@H]3O[C@]4(O)O[C@@H]([C@@H](O)[C@@]2(N1)[C@@H]4O)[C@]3(O)CO [tetrodotoxin]
effect on electrically evoked compound action potentials (CAPs): reversibly abolished
